Measured values taken from patent US20190282673A1, “STAPHTAME ACTIVITY ON BIOFILMS” (priority 2016, published 2019).
Read-outs that look alike come from different tables or passages of the source.

Assays:
[1] = test system: S. aureus; test: MIC and checkerboard synergy (broth microdilution) on planktonic cells; type: cell-based, Staphylococcus aureus; settings: for MIC: Staphylococcus aureus, read-out: MIC (drug alone)
Description: MIC was determined using a modified Clinical and Laboratory Standards Institute (CLSI) broth microdilution procedure described earlier in Vipra, et al. (2012) “Antistaphylococcal activity of bacteriophage derived chimeric protein P128” BMC Microbiol. 12:41-50; and Clinical and Laboratory Standards Institute (2012) “Methods for Dilution Antimicrobial Susceptibility Tests for Bacteria That Grow Aerobically; Approved Standard” CLSI document M07-A9.9 ed. Wayne, Pa. USA. In order to determine effects of combinations of P128 with antibiotics, combinations of various dilutions of P128 and a second drug were tested for growth inhibition using a microdilution checkerboard technique. See Lu, et al. (2013) “In vitro activity of sodium new houttuyfonate alone and in combination with oxacillin or netilmicin against methicillin-resistant Staphylococcus aureus” PLoS One 8:e68053. Briefly, S. aureus culture at a final cell number of 5×10^5 CFU/mL was added to wells of 96-well microtiter plates (precoated with 0.5% BSA), containing two-fold dilutions of P128 and the second drug in cation adjusted Mueller Hinton Broth (CAMHB). The plates were incubated at 37° C. for 24 h and the individual MICs and the combination MICs were read. The fractional inhibitory concentration index (FICI) was determined using the following equation: FICI=(MIC of drug A in the combination/MIC of drug A alone)+(MIC of drug B in the combination/MIC of drug B alone). The combination was considered to be synergistic when the FICI was ≤0.5; additive when FICI was 0.5-1.0; indifferent when FICI was 1-4 and antagonistic when FICI≥4. The experiments were performed in triplicate and repeated twice.
In order to find out whether P128 can act in a synergistic manner with commonly used antibiotics, MIC based growth inhibition assays were performed. MIC based synergy was studied by checkerboard method by determining the FIC index using the method of Lu, et at (2013) “In vitro activity of sodium new houttuyfonate alone and in combination with oxacillin or netilmicin against methicillin-resistant Staphylococcus aureus” PLoS One 8:e68053. […] Similarly.
(§1) Bacterial cultures at a final cell number of 5×10^5 CFU/mL was added to wells of 96-well microtiter plates (precoated with 0.5% BSA), containing two-fold dilutions of P128 and the second drug in cation adjusted Mueller Hinton Broth (CAMHB). The plates were incubated at 37° C. for 24 h and the individual MICs and the combination MICs were read. The fractional inhibitory concentration index (FICI) was determined using the following equation: FICI=(MIC of drug A in the combination/MIC of drug A alone)+(MIC of drug B in the combination/MIC of drug B alone). The combination was considered to be synergistic when the FICI was ≤0.5; additive when FICI was 0.5-1.0; indifferent when FICI was 1-4 and antagonistic when FICI≥4.

[2] = test system: S. aureus biofilms; test: MBIC and checkerboard synergy on preformed biofilm (MTT assay); type: cell-based, Staphylococcus aureus
Description: […] LB supplemented with 50 μg/mL CaCl2 was used for daptomycin treatment wells. The contents of the well was aspirated out and discarded. The biofilm adhered to the wells was quantified by MTT assay as described above. The MBIC was defined as the minimum concentration of P128 or the drug showing no colour development. […] In each experiment, in addition to the combination MBIC, the MBIC of each drug was also determined individually. The fractional MBIC concentrations were determined by MTT dye method as described above. The FICI and synergy was also calculated in a similar manner.
The ability of P128 to inhibit growth of S. aureus in a preformed biofilm was measured by determining minimum biofilm inhibition concentration (MBIC), defined as minimum concentration showing growth inhibition in a MTT based assay. […] 11:226.
The assay was optimized using the standard S. aureus strain ATCC 29213. An overnight-grown culture of the strain was diluted 1:40 in LB broth 200 μL of diluted culture was aliquoted into microtiter plate wells. Microplates were placed in a shaker-incubator set to 37° C., and 100 rpm for 24 h followed by 48 h incubation under static conditions at 37° C. The contents of one set of four wells were aspirated and discarded. Wells were washed twice with 1×PBS and the presence of biofilm in the wells at the end of this 72-hour period was determined by metabolic dye-reduction assay method using MTT (3-(4, 5-dimethylthiazol-5-diphenyltetrazolium bromide; Himedia). In this assay, live cells reduce the dye leading to color formation which can be read at 570 nm, and the intensity of color can be correlated to number of live cells. 100 μL of PBS was added to the wells along with 10 μL of MTT solution. The plate was incubated for 2 h in the dark. After this, 110 μL of solvent solution solubilizing agent was added and the plate was incubated for 15 minutes at ambient temperature with gentle agitation. The absorbance was read at 570 nm in a microplate reader. Another set of four wells was processed for harvesting the biofilm and determination of CFUs present by plating on solid media. For biofilm inhibitory studies, the wells were washed twice with 1×PBS and challenged with various concentrations of P128 or other antibiotic drugs and incubated for 24 h at 37° C. The contents of the well was aspirated out and discarded. The biofilm adhered to the wells was quantified by MTT assay as described above. The MBIC was defined as the minimum concentration of P128 or the drug showing no colour development. […] In each experiment, in addition to the combination MBIC, the MBIC of each drug was also determined individually. The fractional MBIC concentrations were determined by MTT dye method as described above. The FICI and synergy was also calculated in a similar manner.
In order to determine whether P128 could synergize with known anti-Staphylococcus drugs to inhibit S. aureus in biofilms. […] The assays were performed in a 96 well checkerboard format using various concentrations of P128 and one of the antibiotics.

[3] = test system: S. epidermidis; test: MIC and checkerboard synergy (broth microdilution) on planktonic cells; type: cell-based, Staphylococcus epidermidis; settings: for MIC: Staphylococcus epidermidis
Description: as §1
S. epidermidis culture at a final cell number of 5×10^5 CFU/mL was added to wells of 96-well microtiter plates (precoated with 0.5% BSA), containing two-fold dilutions of P128 and either Daptomycin or Oxacillin in cation adjusted Mueller Hinton Broth (CAMHB). CAMHB was supplemented with 50 µg/mL Ca^++ for daptomycin assay. The plates were incubated at 37° C. for 24 h and the individual MICs and the combination MICs were read. The fractional inhibitory concentration index (FICI) was determined using the following equation: FICI=(MIC of drug A in the combination/MIC of drug A alone)+(MIC of drug B in the combination/MIC of drug B alone). The combination was considered to be synergistic when the FICI was ≤0.5; additive when FICI was between 0.5-1.0; indifferent when FICI was between 1-4 and antagonistic when FICI was ≥4. The experiments were performed in triplicate and repeated twice.

[4] = test system: S. aureus BK1 biofilms; test: Scanning electron microscopy of treated biofilms in microtitre plates; type: cell-based, Staphylococcus aureus; settings: Gentamycin 50 μg/mL; P128 12.5 μg/mL (lowest concentration tested)
Description: MRSA strain BK1 or MW2 was used for studying biofilm eradication activity of P128 by SEM. For this, biofilms formed in microtitre plates or on the surface of catheters were treated with increasing concentrations of P128 or antibiotics and subjected to SEM. S. aureus BK1 or MW2 was revived on blood agar plates and the culture was grown overnight in TSB supplemented with 20% glucose. The overnight-grown culture was diluted 1:50 in TSB with 2% glucose to achieve OD600=˜0.1. 200 μL of the diluted culture was aliquoted into each well of the 96 well plate and incubated at 37° C. under static conditions for 18 h. After incubation the contents were aspirated, washed twice with 200 μL of PBS, and 100 μL of media+100 μL of drug were added to each well and incubated again at 37° C. for 18 h. The contents were aspirated, washed with 200 μL of PBS and allowed to dry at 37° C. for 15 min. The individual wells were cut out and biofilms visualized by SEM.

[5] = Table 4, S. aureus ATCC 29213 preformed biofilm, 6 h
[6] = Table 4, S. aureus ATCC 29213 preformed biofilm, 24 h
[7] = Table 4, S. aureus B9241 preformed biofilm, 6 h
[8] = Table 4, S. aureus B9241 preformed biofilm, 24 h
[9] = Table 4, S. aureus BK1 preformed biofilm, 6 h
[10] = Table 4, S. aureus BK1 preformed biofilm, 24 h

CC[C@H]1OC(=O)[C@H](C)[C@@H](O[C@H]2C[C@@](C)(OC)[C@@H](O)[C@H](C)O2)[C@H](C)[C@@H](O[C@@H]2O[C@H](C)C[C@H](N(C)C)[C@H]2O)[C@](C)(O)C[C@@H](C)CN(C)[C@H](C)[C@@H](O)[C@]1(C)O [Azithromycin, azithromycin]
MIC ([1]; 24 h, S. aureus BK18): 2 µg/mL

Cc1nnc(SCC2=C(C(=O)O)N3C(=O)[C@@H](NC(=O)Cn4cnnn4)[C@H]3SC2)s1 [Cephazolin, cephazolin]
MIC (drug alone) ([1]; S. aureus COL (MRSA)): >10 µg/mL | MIC (drug alone) ([1]; S. aureus MW2 (MRSA)): 5 µg/mL | MIC (drug alone) ([1]; S. aureus USA 300 (MRSA)): >10 µg/mL

O=C(O)c1cn(C2CC2)c2cc(N3CCNCC3)c(F)cc2c1=O [Ciprofloxacin, ciprofloxacin, reference compound]
MBIC (individual) [2, 5]: >250 µg/mL | MBIC (individual) [2, 6]: 6.5 µg/mL | MBIC (individual) [2, 7]: >250 µg/mL | MBIC (individual) [2, 8]: 250 µg/mL | MBIC (individual) [2, 9]: >250 µg/mL | MBIC (individual) [2, 10]: >250 µg/mL

Cc1onc(-c2ccccc2)c1C(=O)N[C@@H]1C(=O)N2[C@@H]1SC(C)(C)[C@@H]2C(=O)O [Oxacillin, oxacillin]
MIC ([1]; MRSA / USA300, 24 h, S. aureus USA 300 (MRSA)): > 16 µg/mL | MIC ([1]; MRSA, 24 h, MRSA strain BK22): > 16 µg/mL | MIC ([1]; MRSA, 24 h, S. aureus COL (MRSA)): > 16 µg/mL | MIC ([1]; MRSA, 24 h, S. aureus MW2 (MRSA)): > 16 µg/mL | MIC (drug alone) ([3]; S. epidermidis B9470): 16 µg/mL | MIC (drug alone) ([3]; S. epidermidis B9471): 16 µg/mL | MIC ([3]; S. epidermidis B9467, read-out: MIC (drug alone)): 8 µg/mL | MIC ([3]; S. epidermidis B9468, read-out: MIC (drug alone)): 0.12 µg/mL | MIC ([3]; S. epidermidis B9470, read-out: MIC (drug alone)): > 8 µg/mL | MIC ([3]; S. epidermidis B9471, read-out: MIC (drug alone)): > 8 µg/mL | MIC ([3]; S. epidermidis B9472, read-out: MIC (drug alone)): 16 µg/mL | MIC ([3]; S. epidermidis B9473, read-out: MIC (drug alone)): 16 µg/mL | MIC ([3]; S. epidermidis, read-out: MIC on resistant strains): 0.12 µg/mL | MIC ([3]; S. epidermidis, read-out: MIC on the sensitive strains): 16 µg/mL

CN(C)c1cc(NC(=O)CNC(C)(C)C)c(O)c2c1C[C@H]1C[C@H]3[C@H](N(C)C)C(O)=C(C(N)=O)C(=O)[C@@]3(O)C(O)=C1C2=O [Tigecycline]
MIC ([1]; 24 h, S. aureus BK18): 4 µg/mL

gentamycin [reference compound]
MBIC (individual) [2, 5]: >1000 µg/mL | MBIC (individual) [2, 6]: >1000 µg/mL | MBIC (individual) [2, 7]: >1000 µg/mL | MBIC (individual) [2, 8]: >1000 µg/mL | MBIC (individual) [2, 9]: >1000 µg/mL | MBIC (individual) [2, 10]: >1000 µg/mL | Reduction in MBIC in combination with P128 ([2]; gentamycin sensitive strains ATCC29213 and BK1): > 250 fold | MIC (drug alone) ([1]; S. aureus ATCC 29213 (MSSA)): 0.4 µg/mL | MIC (drug alone) ([1]; S. aureus B9241 (gentamycin and ciprofloxacin resistant)): 62 µg/mL | MIC (drug alone) ([1]; S. aureus BK1 (MRSA, ciprofloxacin resistant)): 0.4 µg/mL | MIC on resistant strains ([1]; planktonic S. aureus, strains resistant to the drug): 62 µg/mL | MIC on sensitive strains ([1]; planktonic S. aureus, strains sensitive to the drug): 0.4 µg/mL | Effect on biofilm by SEM [4]: did not have any appreciable effect
